A short description of the data set: in vitro. The note with it: rat, gh3-tre-luc cells.

The structures appear in SMILES notation. Structures can show the parent of a compound that is named as a salt.

Broadly, the CC50 is the concentration at which the toxic effect on the cells reaches its halfway point. High values mean better tolerance by the cells, low ones harm at low concentration.

For `Nc1ccc2cc(S(=O)(=O)O)ccc2c1` [6-Aminonaphthalene-2-sulfonic acid], the CC50 at 24 h (AC50 (uM) modified / 1000) is over 90 µM. Same read-out and setting: to `Cc1c(C(N)=O)cc([N+](=O)[O-])cc1[N+](=O)[O-]` [Zoalene] belongs over 90 µM; to `CCCCCCCCCCCCCC[n+]1ccccc1` [Tetradecylpyridinium bromide], 6.51 µM.

On to `CCOc1ccc(NC(C)=O)cc1` [Phenacetin], for which, where the note is “AC50 (uM) modified / 1000”, the cytotoxic concentration (CC50) at 24 h is over 50 µM. In the case of `CO[C@H]1C[C@H](O[C@H]2[C@H](C)O[C@@H](O[C@@H]3/C(C)=C/C[C@@H]4C[C@@H](C[C@]5(C=C[C@H](C)[C@@H](C6CCCCC6)O5)O4)OC(=O)[C@@H]4C=C(C)[C@@H](O)[C@H]5OC/C(=C\C=C\[C@@H]3C)[C@]54O)C[C@@H]2OC)O[C@@H](C)[C@@H]1O` [Doramectin], where the note is “AC50 (uM) modified / 1000”, the CC50 at 24 h turned out to be 2.94 µM. For the setting “AC50 (uM) modified / 1000”, `CC(C)(C)NC[C@H](O)COc1ccccc1C1CCCC1` [Penbutolol sulfate] gave a CC50 at 24 h of 11.1 µM. Same read-out and setting: to `Cc1cccc(Cc2c[nH]cn2)c1C` [Detomidine hydrochloride] belongs over 50 µM; to `CCOC(=O)N(C)N=O` [N-Nitroso-N-methylurethane], over 90 µM; to `COC(=O)c1ccccc1C(=O)OC` [Dimethyl phthalate], over 50 µM. Still for that read-out and setting: to `CC(C)c1ccc2ncccc2c1` [6-(1-Methylethyl)quinoline] belongs over 90 µM; to `NC(=O)N(O)[C@@H]1C=C[C@H](Oc2cccc(Oc3ccc(F)cc3)c2)C1` [CJ-013790], over 90 µM; to `CCCCCN(CCCCC)C(=O)C(CCC(=O)O)NC(=O)c1ccc(Cl)c(Cl)c1` (stereo not shown) [Lorglumide sodium], over 50 µM. For the compound `CC(=O)c1ccccc1[N+](=O)[O-]` [2-Nitroacetophenone], the CC50 at 24 h (AC50 (uM) modified / 1000) is over 90 µM.

Under “AC50 (uM) modified / 1000”, `CCOC(=O)C(C)(C)C` [Ethylpivalate] registered a 50% cytotoxic concentration (CC50) at 24 h of over 90 µM. For `OCCCC1CCCCC1` [3-Cyclohexylpropan-1-ol], for the setting “AC50 (uM) modified / 1000”, the CC50 at 24 h is over 90 µM. Take `c1ccc2c(c1)oc1ccccc12` [Dibenzofuran]: the CC50 at 24 h (AC50 (uM) modified / 1000) is over 90 µM. Same read-out and setting: next, `CN1C(C)(C)CCCC1(C)C` [Pempidine d-tartaric acid]: over 50 µM; `CCCCCCC(O)CO` (stereo not shown) [1,2-Octanediol]: over 90 µM; `CN(C)C(=O)C1(N2CCCCC2)CCN(CC[C@@]2(c3ccc(Cl)c(Cl)c3)CN(C(=O)c3ccccc3)CCO2)CC1` [SSR 241586 HCl]: 4.07 µM. The compound `Cc1ccc(N)cc1` [4-Methylaniline hydrochloride] had a CC50 at 24 h (AC50 (uM) modified / 1000, Tox21_110001=Tox21_200517, viability, 1 nM T3 present, 24 h) of over 90 µM.

Under “AC50 (uM) modified / 1000”, `Brc1ccccc1-c1ccccc1` [2-Bromobiphenyl] gave a 50% cytotoxic concentration (CC50) at 24 h of over 90 µM. As for `N#CCC#N` [Propanedinitrile], the CC50 at 24 h (AC50 (uM) modified / 1000, Tox21_110001=Tox21_301196, viability, 1 nM T3 present, 24 h) came out at 40.5 µM.

`N#CCc1ccccc1` [Benzyl cyanide] came in with a CC50 at 24 h (AC50 (uM) modified / 1000) of over 90 µM. Consider `Cc1ccsc1/C=C/C1=NCCCN1C` [Morantel tartrate], for which the cytotoxic concentration (CC50) at 24 h (AC50 (uM) modified / 1000) was over 20 µM. Take `O=C(Cl)c1cccc([N+](=O)[O-])c1` [3-Nitrobenzoyl chloride]: the CC50 at 24 h (AC50 (uM) modified / 1000) is over 90 µM. Compound `Cc1ccc(NC(N)=O)cc1` [p-Tolylurea] registered a CC50 at 24 h (AC50 (uM) modified / 1000) of over 90 µM.

Turning to `O=[N+]([O-])c1ccc(F)c(Cl)c1` [2-Chloro-1-fluoro-4-nitrobenzene], the CC50 at 24 h (AC50 (uM) modified / 1000) was over 90 µM. With `O=C(CCN1CC1)OCC(CO)(COC(=O)CCN1CC1)COC(=O)CCN1CC1` [3-{[3-(Aziridin-1-yl)propanoyl]oxy}-2-({[3-(aziridin-1-yl)propanoyl]oxy}methyl)-2-(hydroxymethyl)propyl 3-(aziridin-1-yl)propanoate], where the note is “AC50 (uM) modified / 1000”, the CC50 at 24 h was over 90 µM. As for `c1cc2c3c(cccc3c1)CC2` [Acenaphthene], the CC50 at 24 h (AC50 (uM) modified / 1000) was over 90 µM. Still for that read-out and setting: next, `Nc1nc(N)nc(N)n1` [Melamine]: over 90 µM; `CCC(C(=O)OCCN(CC)CC)c1ccccc1` (stereo not shown) [Butetamate]: over 50 µM. For the setting “AC50 (uM) modified / 1000”, `COCC(C)OC(C)=O` (stereo not shown) [1-Methoxy-2-propyl acetate] yielded a CC50 at 24 h of over 90 µM.

As to `O=C(CCl)C(Cl)Cl` [1,1,3-Trichloropropanone], the CC50 at 24 h (AC50 (uM) modified / 1000, Tox21_110001=Tox21_202795, viability, 1 nM T3 present, 24 h) was determined as 13 µM. `Clc1cc(Cl)c(Cl)c(Cl)c1Cl` [Pentachlorobenzene] yielded a CC50 at 24 h (AC50 (uM) modified / 1000) of over 90 µM. Where the note is “AC50 (uM) modified / 1000”, `CC1(CO)CN(c2ccccc2)NC1=O` (stereo not shown) [4-(Hydroxymethyl)-4-methyl-1-phenylpyrazolidin-3-one] showed a CC50 at 24 h of over 90 µM. `CC(=O)CCc1ccc(OC(C)=O)cc1` [4-(4-(Acetyloxy)phenyl)-2-butanone] had a cytotoxic concentration (CC50) at 24 h (AC50 (uM) modified / 1000) of over 90 µM.

Turning to `NNCCc1ccccc1` [Phenylethylhydrazine sulfate], the 50% cytotoxic concentration (CC50) at 24 h (AC50 (uM) modified / 1000) turned out to be 32.3 µM. Same read-out and setting: to `Nc1cccc(N)n1` [2,6-Diaminopyridine] belongs over 90 µM.

On to `CN1C[C@H](C(=O)N[C@]2(C)O[C@@]3(O)[C@@H]4CCCN4C(=O)[C@H](Cc4ccccc4)N3C2=O)C=C2c3cccc4[nH]cc(c34)C[C@H]21` [Ergotamine D-tartrate], for which the 50% cytotoxic concentration (CC50) at 24 h was over 50 µM (AC50 (uM) modified / 1000, Tox21_110001=Tox21_111183, viability, 1 nM T3 present, 24 h); over 90 µM (AC50 (uM) modified / 1000, Tox21_110001=Tox21_201705, viability, 1 nM T3 present, 24 h); over 40 µM (AC50 (uM) modified / 1000, Tox21_110001=Tox21_303182, viability, 1 nM T3 present, 24 h). `CC[C@H](C)[C@@H]1NC(=O)[C@H](Cc2ccc(O)cc2)NC(=O)[C@@H](N)CSSC[C@@H](C(=O)N2CCC[C@H]2C(=O)N[C@@H](CC(C)C)C(=O)NCC(N)=O)NC(=O)[C@H](CC(N)=O)NC(=O)[C@H](CCC(N)=O)NC1=O` [Oxytocin acetate] displayed a CC50 at 24 h (AC50 (uM) modified / 1000) of over 50 µM. `CN(C)c1ccc(Cc2ccc(N(C)C)cc2)cc1` [4,4'-Methylenebis(N,N-dimethylaniline)]: the CC50 at 24 h (AC50 (uM) modified / 1000) was over 90 µM. Take `CC[C@@H](CO)NC(=O)[C@@H]1C=C2c3cccc4[nH]cc(c34)C[C@H]2N(C)C1` [Methergine]: under “AC50 (uM) modified / 1000, Tox21_110001=Tox21_110809, viability, 1 nM T3 present, 24 h”, the CC50 at 24 h is over 50 µM. Take `CN1CCC(=C2c3ccccc3CCc3cccnc32)CC1` [Azatadine]: it took 47.7 µM to reach half-maximal cytotoxicity (AC50 (uM) modified / 1000) (CC50 at 24 h). In the case of `c1ccc2nc(N3CCNCC3)ccc2c1` [Quipazine maleate], the CC50 at 24 h (AC50 (uM) modified / 1000) stood at 36.9 µM. Same read-out and setting: next, `Cc1ccc(C(=O)c2ccccc2)cc1` [4-Methylbenzophenone]: over 90 µM; `NCCC(O)(P(=O)(O)O)P(=O)(O)O` [Pamidronic acid]: over 50 µM. The compound `CC(=O)c1c(C)cc(C(C)(C)C)cc1C` [4'-tert-Butyl-2',6'-dimethylacetophenone] registered a CC50 at 24 h (AC50 (uM) modified / 1000) of over 90 µM. In the case of `COC(=O)C1=C(C)NC(C)=C(C(=O)OCC(C)=O)C1c1ccccc1[N+](=O)[O-]` (stereo not shown) [Aranidipine], half-maximal cytotoxicity (AC50 (uM) modified / 1000) (CC50 at 24 h) was put at 8.18 µM. For the compound `C=CN1CCCC1=O` [N-Vinyl-2-pyrrolidone], the CC50 at 24 h (AC50 (uM) modified / 1000) is over 90 µM. On to `COC(=O)c1cccnc1` [Methyl nicotinate], for which the CC50 at 24 h (AC50 (uM) modified / 1000) is over 90 µM. For `CCN[C@@H](C)Cc1ccccc1` [(S)-(+)-N-Ethylamphetamine hydrochloride], the half-maximal cytotoxic concentration (CC50) at 24 h (AC50 (uM) modified / 1000) was over 100 µM. Where the note is “AC50 (uM) modified / 1000, Tox21_110001=Tox21_300586, viability, 1 nM T3 present, 24 h”, `ClC1=C(Cl)[C@]2(Cl)C3C(Cl)C(Cl)CC3[C@@]1(Cl)C2(Cl)Cl` (stereo partly shown) [Chlordane] registered a CC50 at 24 h of 25.5 µM.

In turn, `COc1cc(C)nc(-n2nc(C)cc2OC)n1` [Epirizole] came in with a cytotoxic concentration (CC50) at 24 h (AC50 (uM) modified / 1000) of over 20 µM.

`CC(C)CCCCCCCCCCCCCCC(=O)O` [Isooctadecanoic acid]: the CC50 at 24 h (AC50 (uM) modified / 1000) was over 90 µM. The same measure, in the same setting: next, `CCN(Cc1cccc(S(=O)(=O)O)c1)c1ccc(C(=C2C=CC(=[N+](CC)Cc3cccc(S(=O)(=O)[O-])c3)C=C2)c2ccccc2)cc1` [FD&C Green No. 1]: over 70 µM.

`N[C@@H](Cc1c[nH]c2ccc(O)cc12)C(=O)O` [L-5-Hydroxytryptophan] came in with a cytotoxic concentration (CC50) at 24 h (AC50 (uM) modified / 1000) of over 90 µM.

(Values after PMC6792352, “Limited Chemical Structural Diversity Found to Modulate Thyroid Hormone Receptor in the Tox21 Chemical Library” (Environmental Health Perspectives, 2019).)
